Results on 9 compounds are retold here after patent US20050020687A1, “Methods of treating inflammatory and viral disorders by administering cyclopentenone compounds” (priority 1996, published 2005).

Entries after “also recorded” stand apart in the source; their conditions may differ. Like-named read-outs stand apart in the source and are kept apart here.

For one data set, the system named is NF-κB. In words: TPA-induced NF-κB activation by EMSA in Jurkat cells. Particulars: for IC90: read-out: NF-κB inhibition IC90, TPA 25 ng/ml; for TPA-induced NF-κB activation at 500 μM: 500 μM for 1 hour then TPA 25 ng/ml; for concentrations found to inhibit NF-κB activation: FIG. 10.
In a further data set the test system is HSP70 gene transcription. Briefly: Transcription run-on assay in isolated K562 nuclei.
The subject of data set [1] is vesicular stomatitis virus (VSV), Indiana serotype (Orsay). It counts as cell-based. Particulars: MA104 cells.
For data set [2], the system named is HSP70. In words: HSP70 and total protein synthesis in K562 cells ([35S]-methionine). Particulars: 500 μM.
Experimental: K562 cells treated with 500 μM 2 cyclopenten-1-one for different times were pulse-labeled with L-[^35S]-methionine (10 μCi/10^6 cells) for 1 hour. Cells were washed with phosphate buffered saline (PBS) and lysed with 400 μl of lysis buffer (20 nM Tris-Ci, pH 7.4, 0.1 M NaCl, 5 mM MgCl2, 1% Nonidet P-40, 0.5% SDS) containing protease inhibitors. After cell lysis, the radioactivity incorporated into trichloroacetic acid-insoluble material was determined, and an aliquot of samples containing the same amount of radioactivity were analyzed by 10% SDS-PAGE and autoradiography. HSP70 synthesis was determined by densitometric analysis of the autoradiograms. Total protein synthesis was determined as [^35S]-methionine incorporation into TCA-insoluble material (Amici et al., 1993, Exp. Cell. Res. 207. 230-234).
The test system of the next data set is VSV proteins. It counts as cell-based, vesicular stomatitis virus. Particulars: VSV-infected MA104 cells, [35S]-methionine, SDS-PAGE.
Data set [3] has as its system heat shock transcription factor (HSF). In words: HSF activation by EMSA in K562 cells. The following applies: 500 μM.
Experimental: K562 human erythroleukemia cells, monolayers of monkey kidney cells (MA104 cells), and Jurkat cells were grown in RPMI 1640 medium supplemented with 10% fetal calf serum and antibiotics at 37° C. in a 5% CO2 humidified atmosphere (Amici et al., 1995, Cancer Research 55: 14452-4457).
At different times following 2-cyclopenten-1-one treatment or 3 hours following heat shock, whole cell extracts were prepared and analyzed by EMSA (Electrophoretic Mobility Shift Assay) as described in Amici et al., 1995, supra.
For data set [4] the test system is unchanged. In words: HSF activation by EMSA in Jurkat cells. The following applies: for HSF activation at 500 μM: 500 μM for 1 hour then TPA; for concentrations found to activate HSF: TPA 25 ng/ml, FIG. 10. On the technique in general: A gel shift assay detects complexes by their altered migration in electrophoresis.
Experimental: (§1) Three hours after treatment, whole cell extracts were prepared and analyzed by EMSA (Electrophoretic Mobility Shift Assay) as described in Amici et al., 1995, supra. After a 20 minute incubation at room temperature, HSF-HSE or NF-κB-DNA-complexes were analyzed by nondenaturing 4% polyacrylamide gel electrophoresis and autoradiography. The amount of shifted HSE probe and NF-κB probe, an indicator of HSF DNA-binding activity and NF-κB activity, respectively, were quantitated by Molecular Dynamics Phospholmager (MDP) analysis.
(§2) At different times or three hours after treatment, whole cell extracts were prepared and analyzed by EMSA (Electrophoretic Mobility Shift Assay) as described in Amici et al., 1995, supra. Briefly, extracts (10 μg/sample) were mixed with 0.1 ng of a ^32P-NF-κB element or ^32P—HSE oligonucleotide and 0.5 μg of poly(dI-dC) (Pharmacia Biotech Inc.) in 25 μl of binding buffer (10 nM Tris-Cl, pH 7.8, 50 mM NaCl, 1 mM EDTA, 0.5 mM dithiothreitol, 5% glycerol). After a 20 minute incubation at room temperature, HSF-HSE or NF-κB-DNA-complexes were analyzed by nondenaturing 4% polyacrylamide gel electrophoresis and autoradiography. The amount of shifted HSE probe and NF-κB probe, an indicator of HSF DNA-binding activity and NF-κB activity, respectively, were quantitated by Molecular Dynamics Phospholmager (MDP) analysis.
(§3) Jurkat cells were incubated with the compounds listed in Table 1 (infra) or reference diluent at different concentrations for 1 hour and then were stimulated with TPA (25 ng/ml). After 1 hour at 37° C. the whole-cell extracts were prepared and subjected to EMSA to determine NF-κB and HSF activation. The levels of binding-DNA activity of NF-κB were quantified with Molecular Dynamics Phosphorlmager analysis.
The subject of data set [5] is HSP90 and HSP70 gene transcription. In words: Transcription run-on assay in isolated Jurkat nuclei. It counts as cell-based, human.
Data set [6] has as its system Influenza A virus A/PR8/34 (H1N1) (PR8 virus). In words: PR8 influenza virus replication in MDCK cells (HAU and CPE50%). It counts as cell-based.
The subject of another data set is PR8 virus. Briefly: Virus titer in the lungs of PR8-infected mice. The following applies: 10 μg/mouse/day i.p., four days after infection with 1 HAU PR8 virus/mouse. It counts as in vivo, Balb/c mice.
The conditions of data set [7]: 10 μg/day/mouse i.p., for 4 days.
For the next data set, the system named is PR8 influenza virus. Briefly: Survival and body weight of PR8-infected Balb/c mice. It counts as in vivo.
In data set [8] the test system is HSP70. Briefly: Cellular and heat shock protein synthesis in MDCK cells. It counts as cell-based, canine.
Data set [9] relates to PR8 influenza virus proteins. It counts as cell-based, Influenza A virus.

Experimental for NF-κB: as §1, §2, §3

On to `CC(=O)NC(Cc1ccccc1)C(=O)Oc1ccc2ccccc2c1` (racemic) [APNE, N-acethyl-DL-phenylalanine-β-napthylester], for which, in the data set with NF-κB, the IC90 worked out at 300 µM.

As for `O=C1C=CCC1` [2-cyclopenten-1-one], in the data set with HSP70 gene transcription, the “HSP70 mRNA transcription by 24 hours after treatment” value is on record as “decreased”; the “time after treatment at which HSP70 mRNA transcription was detected” value stood at 1.5 h; the “time after treatment at which HSP70 transcription rates were maximal” value was in the range of 6 to 9 h; the “transcription of other stress proteins (HSC70, GRP78/BiP, heme-oxygenase)” value is reported as “not affected”. Also, the “inhibition of production of VSV infectious particles with respect to control” value (“inhibition of production … to control” below) in data set [1] (24 h p.i., lower end of 100-500 μM) is 10 times. Besides, the “inhibition of production … to control” value in data set [1] (24 h p.i., upper end of 100-500 μM) was “more than 1000 times”. The “HSP70 protein synthesis versus cellular protein synthesis” value with HSP70 [2] was “selectively stimulate HSP70 protein synthesis”. For the same compound, the “effect on VSV protein synthesis” value in the data set on VSV proteins was “selective block of the viral protein synthesis”. Moreover, in [3], the “less activated HSF at 24 hours than at 9 hours after treatment” value is reported as “Approximately 50%”, the “time after treatment at which activation of HSF was detected” value was found to be 1.5 h and the “time after treatment of maximum levels of HSF activation” value came out at 9 h. Moreover, the “HSF activation at 500 μM” value in [4] (EMSA) is given as “detected”. The “HSF activation at 125 μM” value in data set [4] (same samples as NF-κB EMSA) is given as “detectable”. In the data set with NF-κB, the “TPA-induced NF-κB activation at 500 μM” value is on record as “not detectable; also recorded: inhibits TPA-induced NF-κB activation”. In the data set on NF-κB (TPA 25 ng/ml), the “lowest concentration inhibiting NF-κB activation by TPA” value stood at 125 µM.

As for `O=c1oc(Cl)c(Cl)c2ccccc12` [DCIC, 3,4-dichloro-iso-coumarine], the “inhibition of production … to control” value in data set [1] (lower end of 5-45 μM) is 50%. Also, in data set [1] (upper end of 5-45 μM), the “inhibition of production … to control” value is listed as “more than 98%”. Moreover, the “effect on VSV protein synthesis” value with VSV proteins is “selective block of the viral protein synthesis”. For the same compound, in data set [5], the “HSP90 and HSP70 mRNA transcription by 24 hours after treatment” value is on record as “decreased”; the “selectivity of stress protein induction (HSP90, Grp78, HSC70, HSP70)” value is “selectively induces the expression of HSP90 and HSP70”; the “time after treatment at which HSP90 and HSP70 mRNA transcription were detected” value was 1 h; the “time after treatment at which HSP90 and HSP70 transcription rates were maximal” value is reported as “about 3 hours”. In [4] (5 μM, EMSA), the “duration of HSF activation following initiation of treatment” value was found to be 12 h, the “time after treatment at which activation of HSF was detected” value turned out to be 1 h and the “time after treatment of maximum levels of HSF activation” value was determined as 3 h. In addition, in data set [4] (EMSA), the “concentrations found to activate HSF” value lay in the range of 5 to 10 µM. In addition, the “concentrations found to inhibit NF-κB activation” value with NF-κB (TPA 25 ng/ml) fell in the range of 5 to 10 µM. Besides, the IC90 in the data set on NF-κB was 5.5 µM.

As to `CCCCC[C@H](O)/C=C/[C@H]1C=CC(=O)[C@@H]1CCCCCCC(=O)O` [PGA1, Prostaglandin A1], in [6], the “effect on PR8 virus replication, comparison of prostaglandins” value was “only modestly and transiently inhibited”. For the same compound, in data set [6] (MDCK cells, 10 μg/ml, data not shown), the “decrease of PR8 virus yield up to 48 hours p.i.” value was “more than 90 % of control”.

Regarding `O=C1CCCC1` [cyclopentanone, reference compound], the “HSF activation at 500 μM” value in data set [4] (EMSA) was “not detected”. Also, the “TPA-induced NF-κB activation at 500 μM” value in the data set with NF-κB is “do not inhibit NF-κB activation”.

Take `C1=CCCC1` [cyclopentene, reference compound]: the “HSF activation at 500 μM” value in [4] (EMSA) was “not detected”. Besides, the “TPA-induced NF-κB activation at 500 μM” value with NF-κB is given as “do not inhibit NF-κB activation”.

`CCCCCC(O)C/C=C1/C(=O)C=CC1C/C=C\CCCC(=O)O` (stereo not drawn) [Δ^12-PGJ2, 9-deoxy-Δ^9,Δ^12-13,14-dihydro-PGD2]: the “virus titer in the lungs” value in the data set with PR8 virus was 0.07±0.03×10^4 CPE50% units/gr of lung tissue. For the same compound, the signs of toxicity result in data set [7] was “did not show any sign of toxicity”. In data set [7] (data not shown), the “loss of body weight in infected animals” value is “reduced”. In the data set on PR8 influenza virus (1 μg/day/mouse i.p. for 7 days, FIG. 15A), the mouse survival entry was “no effect on mouse survival”. The “survival of the animals” value in the data set with PR8 influenza virus (5 μg/day/mouse i.p. daily for 7 days, FIG. 15B) came to 60%. Further, the “mice survival on day 25 p.i.” value in the data set with PR8 influenza virus (5 μg/day/mouse i.p. for 7 days, FIG. 15A) was determined as 50%. In addition, the “survival of the animals” value in the data set with PR8 influenza virus (5 μg/day/mouse i.p. on days 0, 2 and 4, FIG. 15B) was “approximately 30%”. In addition, the “body weight at 7 days p.i.” value in the data set with PR8 influenza virus (PR8-infected mice, 7-day treatment, 5 μg/day/mouse) was found to be 18.25 ± 0.68 g. Besides, in the data set on HSP70 [8], the “time after treatment at which HSP70 synthesis was detectable” value turned out to be 3 h and the “time for which HSP70 synthesis continued to be detectable” value was “at least 12 hours”. Besides, the “synthesis of HSP90” value in the data set with HSP70 [8] (MDCK cells, 6 μg/ml) is listed as “enhanced”. Also, in the data set on HSP70 [8] (MDCK cells, 6 μg/ml, SDS-PAGE and immunoblot), the “synthesis of HSC70 and HSP70” value is on record as “markedly induced”. Moreover, in the data set with HSP70 [8] (uninfected MDCK cells, 6 μg/ml, 24 hours), the “protein synthesis in uninfected cells” value is on record as “modest reduction”. In addition, in data set [6], the “PR8 virus yield at concentrations higher than 6 μg/ml” value is recorded as “not detectable”; the “PR8 virus yield in HAU” value is given as 0 HAU; the “effect on PR8 virus replication, comparison of prostaglandins” value is listed as “most effective cyclopentenone prostaglandin”; the infectious virus titer is 3.2+0.6×10^1 CPE5O % units/ml. For the same compound, in data set [6], the “inhibition of PR8 virus production” value is reported as “greater than 95 % of control” and the “reduction of infectious virus titers” value was “more than 99 % of control”. Further, the “period for which antiviral activity is sustained” value in data set [6] (MDCK cells, 6 μg/ml) is reported as “at least 72 hours p.i”. The “inhibition of PR8 virus replication up to 72 h p.i.” value in [6] (MDCK cells, single treatment with 6 μg/ml) is recorded as “more than 95%”. For the same compound, in the data set with MDCK cells, the “uptake of precursors and DNA and RNA synthesis” value is “did not inhibit either the uptake of precursors or DNA and RNA synthesis”; the “virus-induced inhibition of cellular RNA synthesis” value is recorded as “prevented”. In addition, in [9], the PR8 protein synthesis result is “dramatic reduction” and the “viral proteins by immunoblot analysis at 24 hours p.i.” value is given as “not detectable”.

As for “Nα-tosyl-lysine-chloromethylketone [TLCK]”, the “concentrations found to activate HSF” value in [4] (EMSA) lay in the range of 30 to 75 µM. Moreover, the “concentrations found to inhibit NF-κB activation” value with NF-κB (TPA 25 ng/ml) lay within 30 to 75 µM. In the data set on NF-κB, the IC90 came to 135 µM.

For the compound “tosyl-L-phenylalanine-chloromethylketone [TPCK]”, in data set [4] (EMSA), the “concentrations found to activate HSF” value lay in the range of 12.5 to 25 µM. For the same compound, the “concentrations found to inhibit NF-κB activation” value in the data set on NF-κB (TPA 25 ng/ml) was in the range of 12.5 to 25 µM. In addition, the IC90 with NF-κB stood at 12 µM.
